Test results published in patent publication EP3492483A1, “COMPOUNDS AND METHODS FOR TREATING BACTERIAL INFECTIONS” (The Washington University, priority 2009, dated 2011).
Converted amounts (≈) assume the structure as drawn. “Also recorded” adds a separate entry of the source.

How the values were obtained:
FimH [1] = molecular target: T1, FimH (Escherichia coli, UniProt P08191)
From the text: In order to more accurately determine the relative contributions of both binding affinity to FimH versus other compound properties to the potency seen in the cellular HA titer assay, a high-throughput fluorescence polarization (FP) (or anisotropy) competitive binding assay was developed using a fluorescent-labeled mannoside ligand shown in Scheme 4.
A fluorescent polarization assay was developed and miniaturized to monitor the direct binding of a synthesized fluorescently labeled butyl mannose derivative to the FimH receptor as well as competitive displacement by other synthetic mannosides. This fluorescent polarization assay provides a rapid method for monitoring improvements to receptor affinity during the synthetic process, as well as providing Kd binding affinity measurements.

FimH [2] = molecular target: T1, FimH; conditions: previously reported, SPR; cited from earlier work
FimH [3] = molecular target: T2, FimH (Escherichia coli, UniProt Q1R2J4); assay: cell-based; set-up: species or system UPEC
T2 construct: endogenous in cells; host or cells: type 1 piliated UPEC bacteria
Protocol: In some embodiments, activity of the compound is measured using hemmagglutination titer of guinea pig red blood cells. Hemagglutination of guinea pig red blood cells by type1 piliated UPEC is dependent upon FimH mannose binding ability and serial dilutions allow a quantitative analysis.
Biological activity against FimH was evaluated using a guinea pig red blood cell-based hemagglutination (HA) assay (ref) in which the concentration of the mannoside on reducing agglutination by 50% was used as the primary endpoint (50% HA titer).
Hemagglutination of guinea pig red blood cells by type1 piliated UPEC is dependent upon FimH mannose binding ability.

UTI89 biofilm [4] = assay: Biofilm formation inhibition assay (PVC, crystal violet); assay type: cell-based, UPEC; conditions: PVC, LB, room temperature; read-out: IC50 of mannoside on UTI89 biofilm formation
Protocol: First, the ability of mannoside derivatives to prevent UPEC type 1 dependent biofilm formation in the published Kolter assay was measured as optimized for the prototypic UTI89 strain used in these assays.
(§3) These mannosides were evaluated first for their ability to inhibit biofilm formation or disrupt preformed biofilms. Biofilm inhibition was evaluated on FimH-dependent UTI89 biofilms grown on PVC in LB at room temperature. […] Biofilm disruption was evaluated by the addition of mannosides to preformed 24 h biofilms followed by growth for an additional 16 h.
UTI89 biofilm was grown in LB +/- mannoside for 24 h at 22°C in PVC plates and quantitated using crystal violet.
Biofilm assay. UTI89 was grown in LB broth in wells of PVC microtiter plates at 23°C in the presence of individual mannosides at varying concentrations. After 48 h of growth, wells were rinsed with water and stained with crystal violet for quantification as described. For biofilm disruption activity in PVC plates, UTI89 was grown in LB broth in wells of PVC microtiter plates at 23°C. After 24 h of growth, mannoside was added and biofilms were grown for an additional 16h. Wells were then rinsed, stained with crystal violet and quantified.

UTI89 biofilm [5] = assay: Disruption of preformed biofilm; assay type: cell-based, UPEC; conditions: for IC50: another 24h
Protocol: as §3
For biofilm disruption activity in PVC plates, UTI89 was grown in LB broth in wells of PVC microtiter plates at 23°C. After 24 h of growth, mannoside was added and biofilms were grown for an additional 16h. Wells were then rinsed, stained with crystal violet and quantified. For biofilm disruption activity on PVC coverslips, UTI89 was grown in LB broth in 50 mL conicals containing PBC coverslips at 23°C. […] Coverslips were then rinsed, fixed with 2% paraformaldehyde (v/v), stained with SYTO9 (1:1000 in PBS; Molecular Probes) and observed with a Zeiss LSM410 confocal laser scanning microscope under a 63X objective.
UTI89 was grown in LB in PVC plates and allowed to form biofilm at RT for 24 or 48h. […] Biofilm was then allowed to grow for another 24h at RT. Biofilm formation was then quantitated using the standard crystal violet assay.

UTI89 [6] = assay: Gentamicin protection assay of infected mouse bladders; assay type: in vivo, mice; conditions: 6 hpi, IP (5 mg/kg) pretreatment
From the text: Based on the extensive elucidation of the UPEC pathogenic cascade, critical nodes in pathogenesis that mannosides would target and thereby have powerful and potent therapeutic ramifications were identified. The first step in the UPEC pathway involves FimH-mediated colonization of the bladder epithelium via the recognition of mannose receptors. Bacterial invasion into superficial bladder umbrella cells can then ensue. […] To test this, a well-established gentamicin protection assay that allows the determination of the luminally bound fraction versus the intracellular fraction was utilized (Fig 10). […] This may be due to contamination from bacteria in the urine or bacteria that are non-specifically associated with the epithelium. In any case, blocking invasion blocks the ability of the bacteria to rapidly expand in numbers. This is due to the ability of the mannosides to block the IBC mechanism.
The efficacy of in vivo mannoside treatment was evaluated after dosing animals with mannoside either IP or PO 30 min prior to infecting with UTI89. At 6 hpi the bladders were removed and total bacterial CFUs were quantitated. […] Gentamicin efficiently kills extracellular UPEC but is unable to penetrate tissue and thus intracellular bacteria survive gentamicin treatment18. […] In bladders from untreated mice, 10^3 - 10^4 CFUs remained after gentamicin treatment.
Gentamicin protection assay. […] The bladders were then bisected twice and washed three times in 500 µl of PBS each. The wash fractions were pooled, lightly spun at 500 rpm for 5 min to pellet exfoliated bladder cells, serially diluted, and plated onto LB agar to obtain the luminal fraction. The bladders were treated with 100 µg of gentamicin/ml for 90 min at 37°C. After treatment, the bladders were washed twice with PBS to eliminate residual gentamicin, homogenized in 1 ml of PBS, serially diluted, and plated onto LB agar to enumberate the CFUs in the intracellular fraction.

UTI89 [7] = assay: IBC enumeration by LacZ staining of whole bladders; assay type: in vivo, mice
Protocol: (§1) After invasion, UPEC are able to rapidly replicate to form IBCs, thus dramatically expanding in numbers. After maturation of the IBC, bacteria are able to disperse from the biomass and spread to neighboring cells to expand the buildup in bacterial numbers via next generation IBC. The ability of mannosides to block IBC formation was evaluated based on LacZ staining of whole mount bladders, a protocol developed to enumerate IBCs. Whole bladder titers were also determined by quantifying colony forming units (CFUs) at 6 hours post-infection and later time points as test compounds were further developed.
To test the efficacy of the mannosides in vivo, UTI89 expressing type 1 pili were pre-incubated with mannosides, inoculated into mice and IBCs were quantitated at 6 hours post-infection (hpi).
Enumeration of bladder IBCs. For bacterial pretreatment experiments, mannoside was added to the bacterial suspension and incubated for 20 min. For animal pretreatment experiments, mannoside ZFH-2056 was administered either IP (5 mg/kg) or orally (100 mg/kg) 30 min prior to inoculation with UTI89. To accurately count the number of IBCs, mice were sacrificed 6 hpi and bladders were aseptically removed, bisected, splayed on silicone plates and fixed in 2% paraformaldehyde (v/v). IBCs, readily discernable as punctate violet spots, were quantified by LacZ staining of whole bladders.

UTI89 [8] = assay: Bladder bacterial titer (CFU), mouse UTI model, UTI89; assay type: in vivo, mice; conditions: for total bacterial CFUs: 6 hpi
Protocol: as §1
Animal infections. Bacteria were grown under type 1 pili-inducing conditions (2x24 h at 37°C statically in LB). The bacteria were harvested and resuspended to an OD600 of 0.5 in PBS. Eight-week-old C3H/HeN (Harlan) female mice were anesthetized by inhalation of isoflurane and infected via transurethral catheterization with 50 µl of the bacterial suspension, resulting in 1-2 x 10^7 inoculum. At 6 hpi, mice were sacrificed by cervical dislocation under anesthesia and the bladders were immediately harvested and processed as described below. All animal studies using mice were approved by the Animal Studies Committee of Washington University (Animal Protocol Number 20100002).
Bladder tissue bacterial titer determination. Mannoside ZFH-2056 was administered either IP (5 mg/kg) or orally (100 mg/kg) 30 min prior to inoculation with UTI89. To enumerate the bacteria present, mice were sacrificed at 6 hpi and bladders were aseptically removed and homogenized in 1 ml PBS, serially diluted and plated onto LB agar plates. CFU was enumerated after 16 h of growth at 37 °C.

PBC-1 [9] = assay: Bladder bacterial titer (CFU), mouse UTI model, TMP-SMZ resistant strain; assay type: in vivo, mice
Protocol: (§2) Mice were either untreated or IP treated with mannoside ZFH-2056 30 min prior to inoculation with bacteria. […] Not only do the bacteria escape the immune system in their intracellular niche, they are also able to escape exposure to effective antibiotics.

[10] = Urine pharmacokinetic analysis of mannoside (LC-MS); assay type: in vivo, mice
Protocol: Pharamacokinetic analysis. […] An equal volume of 10 µM internal standard (ZFH-2050) was added to the urine.

PBC-1 [11] = assay: Growth curve with TMP-SMZ (MIC); assay type: cell-based, UPEC
UTI89 [12] = assay: Bladder bacterial titer (CFU), mouse UTI model, UTI89; assay type: in vivo, mice; conditions: for bacterial titers upon boosting: pretreatment plus 2 treatments every 8h
[13] = Solubility (qualitative statements); conditions: relative to di-ester 15a
[14] = 3 days of 54 µg/ml TMP and 270 µg/ml SMZ in drinking water
Protocol: as §2
Antibiotic treatment. […] Water was changed daily for 3 days prior to inoculation with UTI89.

For `CCCCO[C@H]1O[C@H](CO)[C@@H](O)[C@H](O)[C@@H]1O` [Butylαman, α-D-butylmannoside, reference compound], the EC50 (FimH [1]) is listed as 0.245 µM and the Kd (FimH [2]) is listed as 0.151 µM.
In the case of `CNC(=O)c1cc(C(=O)NC)cc(-c2ccc(O[C@H]3O[C@H](CO)[C@@H](O)[C@H](O)[C@@H]3O)cc2)c1` [Compound 50, N1,N3-dimethyl-5-[4-[(2R,3S,4S,5S,6R)-3,4,5-trihydroxy-6-(hydroxymethyl)tetrahydropyran-2-yl]oxyphenyl]benzene-1,3-dicarboxamide], the EC50 (FimH [3]) is reported as 0.37 µM, the “difference in cell potency vs. binding (drop in cell activity relative to binding)” value (FimH [3]; HA titer vs FP EC50) is reported as 4 fold and the “inhibition of FimH-dependent hemagglutination” value (FimH [3]; in words) is reported as “potent inhibitors”. For the same molecule, the EC90 (FimH [3]; read-out: HA 50% titer EC90) was 0.37 µM, the IC50 (UTI89 biofilm [4]) was 0.74 µM and the “biofilm structure by confocal microscopy” value (UTI89 biofilm [5]; 0.3 µM, 24 h biofilm plus 16 h) was “lacked continuity”. For the same molecule, the IC50 (UTI89 biofilm [5]; mannoside added at 24h) was roughly 6 µM, the IC50 (UTI89 biofilm [5]; mannoside added at 48h) was roughly 25 µM and the luminal bacteria (UTI89 [6]) was “significantly reduced”. The “intracellular bacteria (CFUs after gentamicin)” value (UTI89 [6]; listed as ZFH-2056) was “eliminated all CFUs; also recorded: significantly reduced”, the IBCs (UTI89 [7]; 6 hpi, UTI89 pre-incubated with 10 µM) was “most significant reduction in IBCs” and the “IBC counts in the bladder” value (UTI89 [7]; 10^6 inoculum, 6h) was “no IBCs observed”. For the same molecule, the IBC quantification (UTI89 [7]; IP (5 mg/kg) 30 min prior to inoculation, 6 hpi) was “significant reduction in IBCs”, the IBC quantification (UTI89 [7]; oral (100 mg/kg) 30 min prior to inoculation, 6 hpi) was “significant reduction in IBCs” and the bladder titers (UTI89 [8]; 5mg/kg 30 min prior, 10^7 UTI89, 6 hpi) was “significantly inhibited bacterial infection”. For the same molecule, the “total bacterial CFUs” value (UTI89 [8]; IP (5 mg/kg) 30 min prior to inoculation, listed as ZFH-2056, 5 mg/kg) was “significant drop in bacterial counts; also recorded: significant drop in bacterial load”, the “total bacterial CFUs” value (UTI89 [8]; oral (100 mg/kg) 30 min prior to inoculation) was “significant drop in bacterial counts” and the “efficacy against TMP-SMZ resistant strains” value (PBC-1 [9]; Fig. 29) was “increased efficacy”. For the same molecule, the “bacterial load in the bladder” value (PBC-1 [9]; IP 30 min prior to inoculation, 6 hpi) was “significant drop in bacterial load”, the “lower initial urine concentration versus IP” value ([10]; 100 mg/kg PO) was 10 fold and the “higher urine levels versus IP” value ([10]; 100 mg/kg PO, 8 hours post-dosing) was 10 fold. The “concentration in the urine” value ([10]; IP 5 mg/kg and 10 mg/kg, 30 min after treatment) was roughly 5000 µM, the “time by which mostly gone (eliminated in the urine)” value ([10]; IP dosing, post injection) was 6 to 8 h and the “drug cleared to the urine intact” value ([10]; mouse, in vivo) was greater than 95%. For the same molecule, the concentration at 8 h ([10]; mouse, urine, IP, eight hours after dosing, read-out: level in the urine) was no more than 0.74 µM, the “effect on efficacy of TMP-SMZ killing” value (PBC-1 [11]; 100 µM mannoside) was “not found to increase the efficacy of TMP-SMZ killing” and the EC50 (FimH [1]) was 0.087 µM. The bladder titers (UTI89 [12]; 5mg/kg 30 min prior, 10^7 UTI89, 24 hpi) was “significantly reduced bacterial titers”, the bladder titers (UTI89 [12]; 50mg/kg 30 min prior, 10^7 UTI89, 6 hpi) was “significantly inhibited bacterial infection” and the bladder titers (UTI89 [12]; 50mg/kg 30 min prior, 10^7 UTI89, 24 hpi) was “significantly reduced bacterial titers”. The 2 week titers (UTI89 [12]; 10^6 inoculum, single dose 5mg/kg 30 min prior) was “significant decrease in bacterial load”, the bacterial titers (UTI89 [12]; 10^6 inoculum, treated vs untreated mice) was “significant decrease” and the “bacterial titers, post-infection treatment” value (UTI89 [12]; 24hpi, 5mg/kg IP 1h post-infection plus 2 treatments every 8h) was “no efficacy observed”. For the same molecule, the “bacterial titers upon boosting” value (UTI89 [12]; 24hpi, 10^6 inoculum) was “not observed”, the “bacterial titers upon boosting” value (UTI89 [12]; 24hpi, 10^7 inoculum) was “further efficacy” and the bacterial titers (UTI89 [12]; 24hpi, single IP pretreatment 5mg/kg, 10^7 and 10^6 inoculum) was “significant drop in bacterial titers”. For the same molecule, the solubility [13] was “much improved solubility”.
`COc1cc(Cc2cnc(N)nc2N)cc(OC)c1OC` [TMP, Trimethoprim] gave an MIC (PBC-1 [11]) of 256 µg/mL (≈ 882 µM) and a concentration in urine [14] of 9950 ± 4360 µg/mL.
